Experimental data from patent US8785614B2, “Aberrantly methylated genes in pancreatic cancer” (The Johns Hopkins University, priority 2003, dated 2014).

Columns and labels:
Test in all cases: Oligonucleotide microarray gene expression after TSA (1 μM, 24 h) vs mock
Format in all cases: cell-based, human
[1] = tested on: Panc1 pancreatic cancer cell line
Description: (§1) These include a large panel of novel targets for silencing by histone deacetylation including several known tumor suppressor genes or cell cycle-regulatory genes (ING1, p57KIP2, CHES1, CHFR, GADD45B, and others).

[2] = tested on: Hs766T pancreatic cancer cell line
Description: as §1

[3] = tested on: AsPC1 pancreatic cancer cell line
Description: as §1

CC(/C=C/C(=O)NO)=C\[C@@H](C)C(=O)c1ccc(N(C)C)cc1 [TSA, trichostatin A]
Fold-change after TSA treatment ([1]; ADM, Panc1): 3.22 fold
Fold-change after TSA treatment ([1]; ANGPT1, Panc1): −1.13 fold
Fold-change after TSA treatment ([1]; AREG, Panc1): 4.2 fold
Fold-change after TSA treatment ([1]; ATF3, Panc1): 2.74 fold
Fold-change after TSA treatment ([1]; BIK, Panc1): 5.02 fold
Fold-change after TSA treatment ([1]; CACNA1G, Panc1): 10.14 fold
Fold-change after TSA treatment ([1]; CAPN5, Panc1): 5.41 fold
Fold-change after TSA treatment ([1]; CDH8, Panc1): 6.85 fold
Fold-change after TSA treatment ([1]; CDKN1C, Panc1): 6.26 fold
Fold-change after TSA treatment ([1]; CGR11, Panc1): 11.66 fold
Fold-change after TSA treatment ([1]; CHES1, Panc1): 9.31 fold
Fold-change after TSA treatment ([1]; CHFR, Panc1): −1.33 fold
Fold-change after TSA treatment ([1]; CLDN15, Panc1): 8.69 fold
Fold-change after TSA treatment ([1]; EDR1, Panc1): −2.06 fold
Fold-change after TSA treatment ([1]; EGR4, Panc1): 6.44 fold
Fold-change after TSA treatment ([1]; EREG, Panc1): −1.37 fold
Fold-change after TSA treatment ([1]; GADD45B, Panc1): −1.09 fold
Fold-change after TSA treatment ([1]; GAGE1, Panc1): 0.63 fold
Fold-change after TSA treatment ([1]; GAGE2, Panc1): 1.4 fold
Fold-change after TSA treatment ([1]; GAGE3, Panc1): 1.07 fold
Fold-change after TSA treatment ([1]; GAGE4, Panc1): 2.29 fold
Fold-change after TSA treatment ([1]; GAGE6, Panc1): 1.62 fold
Fold-change after TSA treatment ([1]; GAGE7B, Panc1): 3.56 fold
Fold-change after TSA treatment ([1]; HEP27, Panc1): 31.64 fold
Fold-change after TSA treatment ([1]; HMOX1, Panc1): 1.21 fold
Fold-change after TSA treatment ([1]; HPSE, Panc1): 3.03 fold
Fold-change after TSA treatment ([1]; ID2, Panc1): 21.22 fold
Fold-change after TSA treatment ([1]; ING1, Panc1): 1.5 fold
Fold-change after TSA treatment ([1]; KLK12, Panc1): 2.13 fold
Fold-change after TSA treatment ([1]; MAGE1, Panc1): 15.48 fold
Fold-change after TSA treatment ([1]; MBD1, Panc1): −1.82 fold
Fold-change after TSA treatment ([1]; MMP1, Panc1): −2.63 fold
Fold-change after TSA treatment ([1]; NGFR, Panc1): 30.7 fold
Fold-change after TSA treatment ([1]; NOTCH3, Panc1): 3.9 fold
Fold-change after TSA treatment ([1]; P-glycoprotein (mdr1), Panc1): 3.69 fold
transcripts with marked induction ([1]; Panc1): 459 transcripts
transcripts with marked induction, share of transcripts analyzed ([1]; Panc1 (printed Panel)): 2.5%
Fold-change after TSA treatment ([1]; SPANXA1, Panc1): 6.45 fold
Fold-change after TSA treatment ([1]; STC1, Panc1): 5.63 fold
Fold-change after TSA treatment ([1]; UCPH, Panc1): 2.05 fold
Fold-change after TSA treatment ([1]; ULBP2, Panc1): 18.25 fold
Fold-change after TSA treatment ([1]; WNT4, Panc1): 5.13 fold
Fold-change after TSA treatment ([1]; candidate tumor suppressor gene 21 protein (AF040708), Panc1): 1.01 fold
Fold-change after TSA treatment ([1]; connective tissue growth factor (M92934), Panc1): 7.69 fold
Fold-change after TSA treatment ([1]; hemoglobin, alpha 1 (HBAI), Panc1): 4.55 fold
Fold-change after TSA treatment ([1]; interleukin 8, Panc1): 3.01 fold
Fold-change after TSA treatment ([1]; member 2 (BC002649), Panc1): 5.04 fold
Fold-change after TSA treatment ([1]; period homolog 1 (PERI), Panc1): −3.83 fold
Fold-change after TSA treatment ([1]; prostate differentiation factor (AF003934), Panc1): 4.05 fold
Fold-change after TSA treatment ([1]; protease inhibitor 12 (neuroserpin) (SERPINU), Panc1): 11.7 fold
Fold-change after TSA treatment ([1]; synovial sarcoma, X breakpoint 1 (BC001003), Panc1): 2.73 fold
Fold-change after TSA treatment ([1]; tissue factor pathway inhibitor-2 (L27624), Panc1): 34.65 fold
Fold-change after TSA treatment ([2]; ADM, Hs766T): 1.86 fold
Fold-change after TSA treatment ([2]; ANGPT1, Hs766T): 6.72 fold
Fold-change after TSA treatment ([2]; AREG, Hs766T): 2.02 fold
Fold-change after TSA treatment ([2]; ATF3, Hs766T): 1.73 fold
Fold-change after TSA treatment ([2]; BIK, Hs766T): 2.35 fold
Fold-change after TSA treatment ([2]; CACNA1G, Hs766T): 2.72 fold
Fold-change after TSA treatment ([2]; CAPN5, Hs766T): 1.06 fold
Fold-change after TSA treatment ([2]; CDH8, Hs766T): −1.11 fold
Fold-change after TSA treatment ([2]; CDKN1C, Hs766T): 6.57 fold
Fold-change after TSA treatment ([2]; CGR11, Hs766T): 1.82 fold
Fold-change after TSA treatment ([2]; CHES1, Hs766T): −1.11 fold
Fold-change after TSA treatment ([2]; CHFR, Hs766T): 8 fold
Fold-change after TSA treatment ([2]; CLDN15, Hs766T): −1.81 fold
Fold-change after TSA treatment ([2]; EDR1, Hs766T): −1.26 fold
Fold-change after TSA treatment ([2]; EGR4, Hs766T): 6.49 fold
Fold-change after TSA treatment ([2]; EREG, Hs766T): 7.43 fold
Fold-change after TSA treatment ([2]; GADD45B, Hs766T): 2.01 fold
Fold-change after TSA treatment ([2]; GAGE1, Hs766T): 14.57 fold
Fold-change after TSA treatment ([2]; GAGE2, Hs766T): 432.64 fold
Fold-change after TSA treatment ([2]; GAGE3, Hs766T): 184.93 fold
Fold-change after TSA treatment ([2]; GAGE4, Hs766T): 234.36 fold
Fold-change after TSA treatment ([2]; GAGE6, Hs766T): 237.45 fold
Fold-change after TSA treatment ([2]; GAGE7B, Hs766T): 331.97 fold
Fold-change after TSA treatment ([2]; H1 historic family, member 2 (BC002649), Hs766T): 5.8 fold
Fold-change after TSA treatment ([2]; HEP27, Hs766T): 1631 fold
Fold-change after TSA treatment ([2]; HMOX1, Hs766T): 2.56 fold
Fold-change after TSA treatment ([2]; HPSE, Hs766T): −1.12 fold
transcripts with marked induction ([2]; Hs766T): 349 transcripts
transcripts with marked induction, share of transcripts analyzed ([2]; Hs766T): 1.9%
Fold-change after TSA treatment ([2]; ID2, Hs766T): 5 fold
Fold-change after TSA treatment ([2]; ING1, Hs766T): 11.83 fold
Fold-change after TSA treatment ([2]; KLK12, Hs766T): 1.54 fold
Fold-change after TSA treatment ([2]; MAGE1, Hs766T): 0.49 fold
Fold-change after TSA treatment ([2]; MBD1, Hs766T): 7.94 fold
Fold-change after TSA treatment ([2]; MMP1, Hs766T): 1.63 fold
Fold-change after TSA treatment ([2]; NGFR, Hs766T): 4.11 fold
Fold-change after TSA treatment ([2]; NOTCH3, Hs766T): 2.06 fold
Fold-change after TSA treatment ([2]; P-glycoprotein (mdr1), Hs766T): 5.74 fold
Fold-change after TSA treatment ([2]; SPANXA1, Hs766T): 15.92 fold
Fold-change after TSA treatment ([2]; STC1, Hs766T): −1.31 fold
Fold-change after TSA treatment ([2]; UCPH, Hs766T): −1.45 fold
Fold-change after TSA treatment ([2]; ULBP2, Hs766T): 3.47 fold
Fold-change after TSA treatment ([2]; WNT4, Hs766T): 0.81 fold
Fold-change after TSA treatment ([2]; candidate tumor suppressor gene 21 protein (AF040708), Hs766T): 5.14 fold
Fold-change after TSA treatment ([2]; connective tissue growth factor (M92934), Hs766T): 43 fold
Fold-change after TSA treatment ([2]; hemoglobin, alpha 1 (HBAI), Hs766T): 1.55 fold
Fold-change after TSA treatment ([2]; interleukin 8, Hs766T): −1.42 fold
Fold-change after TSA treatment ([2]; period homolog 1 (PERI), Hs766T): 9.7 fold
Fold-change after TSA treatment ([2]; prostate differentiation factor (AF003934), Hs766T): 3.17 fold
Fold-change after TSA treatment ([2]; protease inhibitor 12 (neuroserpin) (SERPINU), Hs766T): 1.95 fold
Fold-change after TSA treatment ([2]; synovial sarcoma, X breakpoint 1 (BC001003), Hs766T): 38.74 fold
Fold-change after TSA treatment ([2]; tissue factor pathway inhibitor-2 (L27624), Hs766T): 120.09 fold
Fold-change after TSA treatment ([3]; ADM, AsPC1): 7.6 fold
Fold-change after TSA treatment ([3]; ANGPT1, AsPC1): −1.77 fold
Fold-change after TSA treatment ([3]; AREG, AsPC1): 18.35 fold
Fold-change after TSA treatment ([3]; ATF3, AsPC1): 8.73 fold
transcripts with marked induction ([3]; AsPC1): 424 transcripts
transcripts with marked induction, share of transcripts analyzed ([3]; AsPC1): 2.3%
Fold-change after TSA treatment ([3]; BIK, AsPC1): 1.65 fold
Fold-change after TSA treatment ([3]; CACNA1G, AsPC1): 9.95 fold
Fold-change after TSA treatment ([3]; CAPN5, AsPC1): 1.73 fold
Fold-change after TSA treatment ([3]; CDH8, AsPC1): 1.11 fold
Fold-change after TSA treatment ([3]; CDKN1C, AsPC1): 10.62 fold
Fold-change after TSA treatment ([3]; CGR11, AsPC1): −1.39 fold
Fold-change after TSA treatment ([3]; CHES1, AsPC1): 1.87 fold
Fold-change after TSA treatment ([3]; CHFR, AsPC1): −1.1 fold
Fold-change after TSA treatment ([3]; CLDN15, AsPC1): −4.26 fold
Fold-change after TSA treatment ([3]; EDR1, AsPC1): 4.56 fold
Fold-change after TSA treatment ([3]; EGR4, AsPC1): 37.6 fold
Fold-change after TSA treatment ([3]; EREG, AsPC1): 1.91 fold
Fold-change after TSA treatment ([3]; GADD45B, AsPC1): 2.65 fold
Fold-change after TSA treatment ([3]; GAGE1, AsPC1): 0.66 fold
Fold-change after TSA treatment ([3]; GAGE2, AsPC1): −2.5 fold
Fold-change after TSA treatment ([3]; GAGE3, AsPC1): −5.88 fold
Fold-change after TSA treatment ([3]; GAGE4, AsPC1): −1.67 fold
Fold-change after TSA treatment ([3]; GAGE6, AsPC1): −1.16 fold
Fold-change after TSA treatment ([3]; GAGE7B, AsPC1): −4.88 fold
Fold-change after TSA treatment ([3]; H1 historic family, member 2 (BC002649), AsPC1): 6.64 fold
Fold-change after TSA treatment ([3]; HEP27, AsPC1): 413.37 fold
Fold-change after TSA treatment ([3]; HMOX1, AsPC1): 1.73 fold
Fold-change after TSA treatment ([3]; HPSE, AsPC1): 2.18 fold
Fold-change after TSA treatment ([3]; ID2, AsPC1): 10.26 fold
Fold-change after TSA treatment ([3]; ING1, AsPC1): 13.22 fold
Fold-change after TSA treatment ([3]; KLK12, AsPC1): 7.63 fold
Fold-change after TSA treatment ([3]; MAGE1, AsPC1): 1.05 fold
Fold-change after TSA treatment ([3]; MBD1, AsPC1): 2.66 fold
Fold-change after TSA treatment ([3]; MMP1, AsPC1): 9.05 fold
Fold-change after TSA treatment ([3]; NGFR, AsPC1): 0.76 fold
Fold-change after TSA treatment ([3]; NOTCH3, AsPC1): 7.93 fold
Fold-change after TSA treatment ([3]; P-glycoprotein (mdr1), AsPC1): 1.08 fold
Fold-change after TSA treatment ([3]; SPANXA1, AsPC1): −0.78 fold
Fold-change after TSA treatment ([3]; STC1, AsPC1): 15.9 fold
Fold-change after TSA treatment ([3]; UCPH, AsPC1): 5.48 fold
Fold-change after TSA treatment ([3]; ULBP2, AsPC1): 73.47 fold
Fold-change after TSA treatment ([3]; WNT4, AsPC1): 5.72 fold
Fold-change after TSA treatment ([3]; candidate tumor suppressor gene 21 protein (AF040708), AsPC1): −1.47 fold
Fold-change after TSA treatment ([3]; connective tissue growth factor (M92934), AsPC1): 17.38 fold
Fold-change after TSA treatment ([3]; hemoglobin, alpha 1 (HBAI), AsPC1): 20.5 fold
Fold-change after TSA treatment ([3]; interleukin 8, AsPC1): 44.67 fold
Fold-change after TSA treatment ([3]; period homolog 1 (PERI), AsPC1): 20.29 fold
Fold-change after TSA treatment ([3]; prostate differentiation factor (AF003934), AsPC1): 4.45 fold
Fold-change after TSA treatment ([3]; protease inhibitor 12 (neuroserpin) (SERPINU), AsPC1): 8 fold
Fold-change after TSA treatment ([3]; synovial sarcoma, X breakpoint 1 (BC001003), AsPC1): 1.74 fold
Fold-change after TSA treatment ([3]; tissue factor pathway inhibitor-2 (L27624), AsPC1): 0.4 fold
